Laboratory results from the CheMixHub viscosity set.

Assay: xn = mol fraction of the nth substance listed

O=C[C@H](O)[C@@H](O)[C@H](O)[C@H](O)CO + CS(C)=O
viscosity [mPa·s], 101 kPa
Conditions | x1 = 0.04081 | x1 = 0.08276 | x1 = 0.1291 | x1 = 0.1784
298.15 K | 3.819 | 8.234 | 21.23 | 62.65
308.15 K | 2.988 | 5.977 | 13.9 | 36.04
318.15 K | 2.408 | 4.525 | 9.672 | 22.4

O=CN1CCOCC1 + Cc1cc(C)cc(C)c1
298.15 K, 101.3 kPa
Conditions | viscosity [mPa·s]
x2 = 0.02898 | 7.041
x2 = 0.0601 | 6.315
x2 = 0.08748 | 5.789
x2 = 0.1453 | 4.838
x2 = 0.2504 | 3.53
x2 = 0.3197 | 2.903
x2 = 0.4426 | 2.093
x2 = 0.5274 | 1.701
x2 = 0.6167 | 1.375
x2 = 0.661 | 1.264
x2 = 0.7503 | 1.058
x2 = 0.8348 | 0.877
x2 = 0.9476 | 0.731

O=CN1CCOCC1 + Cc1ccc(C)cc1
viscosity [mPa·s]
Conditions | 298.15 K | 303.15 K | 313.15 K | 323.15 K
101 kPa, x2 = 0.1 | 5.473 | 4.774 | 3.78 | 3.059
101 kPa, x2 = 0.2 | 3.996 | 3.557 | 2.865 | 2.378
101 kPa, x2 = 0.3 | 3.008 | 2.716 | 2.243 | 1.893
101 kPa, x2 = 0.4 | 2.311 | 2.107 | 1.782 | 1.528
101 kPa, x2 = 0.5 | 1.837 | 1.7 | 1.443 | 1.263
101 kPa, x2 = 0.6 | 1.38 | 1.295 | 1.098 | 0.944
101 kPa, x2 = 0.7 | 1.099 | 1.018 | 0.8763 | 0.7736
101 kPa, x2 = 0.8 | 0.8844 | 0.824 | 0.7219 | 0.6357
101 kPa, x2 = 0.9 | 0.731 | 0.6863 | 0.6047 | 0.5387
101.3 kPa, x2 = 0.02757 | 6.848 | – | – | –
101.3 kPa, x2 = 0.05782 | 6.12 | – | – | –
101.3 kPa, x2 = 0.09608 | 5.439 | – | – | –
101.3 kPa, x2 = 0.1653 | 4.378 | – | – | –
101.3 kPa, x2 = 0.2769 | 3.14 | – | – | –
101.3 kPa, x2 = 0.355 | 2.505 | – | – | –
101.3 kPa, x2 = 0.4708 | 1.842 | – | – | –
101.3 kPa, x2 = 0.5471 | 1.542 | – | – | –
101.3 kPa, x2 = 0.6377 | 1.231 | – | – | –
101.3 kPa, x2 = 0.6871 | 1.093 | – | – | –
101.3 kPa, x2 = 0.7745 | 0.899 | – | – | –
101.3 kPa, x2 = 0.8554 | 0.772 | – | – | –
101.3 kPa, x2 = 0.9319 | 0.668 | – | – | –

O=CN1CCOCC1 + Cc1cccc(C)c1
viscosity [mPa·s]
Conditions | 298.15 K | 303.15 K | 313.15 K | 323.15 K
101 kPa, x2 = 0.1 | 5.508 | 4.826 | 3.793 | 3.081
101 kPa, x2 = 0.2 | 4.047 | 3.589 | 2.886 | 2.4
101 kPa, x2 = 0.3 | 3.049 | 2.741 | 2.257 | 1.905
101 kPa, x2 = 0.4 | 2.34 | 2.132 | 1.778 | 1.522
101 kPa, x2 = 0.5 | 1.792 | 1.646 | 1.381 | 1.192
101 kPa, x2 = 0.6 | 1.38 | 1.267 | 1.076 | 0.9311
101 kPa, x2 = 0.7 | 1.082 | 1.002 | 0.8623 | 0.7574
101 kPa, x2 = 0.8 | 0.8664 | 0.8124 | 0.708 | 0.6298
101 kPa, x2 = 0.9 | 0.7069 | 0.6603 | 0.586 | 0.5286
101.3 kPa, x2 = 0.03245 | 7.014 | – | – | –
101.3 kPa, x2 = 0.06364 | 6.442 | – | – | –
101.3 kPa, x2 = 0.09907 | 5.89 | – | – | –
101.3 kPa, x2 = 0.1608 | 5.016 | – | – | –
101.3 kPa, x2 = 0.2806 | 3.707 | – | – | –
101.3 kPa, x2 = 0.3561 | 3.033 | – | – | –
101.3 kPa, x2 = 0.4744 | 2.278 | – | – | –
101.3 kPa, x2 = 0.5701 | 1.829 | – | – | –
101.3 kPa, x2 = 0.6556 | 1.511 | – | – | –
101.3 kPa, x2 = 0.6984 | 1.38 | – | – | –
101.3 kPa, x2 = 0.7819 | 1.159 | – | – | –
101.3 kPa, x2 = 0.876 | 0.961 | – | – | –
101.3 kPa, x2 = 0.9337 | 0.875 | – | – | –

O=CN1CCOCC1 + Cc1ccccc1
298.15 K, 101.3 kPa
Conditions | viscosity [mPa·s]
x2 = 0.01784 | 7.177
x2 = 0.06829 | 6.102
x2 = 0.1881 | 4.224
x2 = 0.2675 | 3.336
x2 = 0.3466 | 2.653
x2 = 0.4247 | 2.155
x2 = 0.5094 | 1.701
x2 = 0.5956 | 1.359
x2 = 0.6849 | 1.099
x2 = 0.7722 | 0.879
x2 = 0.8479 | 0.759
x2 = 0.9178 | 0.646

S=C=S + Cc1ccccc1
298.15 K, 101 kPa
Conditions | viscosity [mPa·s]
x1 = 0.1 | 0.5295
x1 = 0.2 | 0.5063
x1 = 0.3 | 0.4837
x1 = 0.4 | 0.462
x1 = 0.5 | 0.4412
x1 = 0.6 | 0.4217
x1 = 0.7 | 0.4035
x1 = 0.8 | 0.3868
x1 = 0.9 | 0.3718
x2 = 0.06082 | 0.37
x2 = 0.3361 | 0.417
x2 = 0.587 | 0.469
